Earlier results as cited in patent publication US5321022A, “Compositions for percutaneous administration” (Kanebo, Ltd., priority 1989, dated 1994).

Conditions: cf: U.S. Pat. No. 4430343

Q: Which “antihistaminic activity (in words)” value does the source give for `CCOCCn1c(N2CCCN(C)CC2)nc2ccccc21` [emedastine, 1-(2-Ethoxyethyl)-2-(hexahydro-4-methyl-1H-1,4-diazepin-1-yl)-1H-benzimidazole] here?
A: The value was “strong antihistaminic activity”.
